# Laboratory results: patent US6794397B2, “Substituted nicotinamides and analogs as activators of caspases and inducers of apoptosis and the use thereof” (Cytovia, Inc., priority 2000, dated 2004)
# pIC50: −log10 of the molar value. “Also recorded” adds a separate entry of the source.
# Experiments:
# [1] = system: T47D; assay: Cell cycle arrest and apoptosis in T47D cells (propidium iodide flow cytometry); format: cell-based, Human; settings: 48 h
# Experimental: T47D, a breast cancer cell line, was maintained and harvested as described in Example 71. […] As a control, cells were also incubated with equivalent amount of solvent as control (DMSO). Cells were harvested at 1,200 rpm and washed twice with 5 mM EDTA/PBS. Cells were then resuspended in 300 μl EDTA/PBS and 700 μl of 100% ethanol, vortexed and incubated at room temperature for 1 h. Samples were spun down at 1,200 rpm for 5 min and the supernatant was removed. A solution containing 100 μg/ml of propidium iodide and 1 mg/ml of RNAse A (fresh) was added to the samples and incubated for 1 h at room temperature. Samples were then transferred to 12×75 mm polystyrene tubes and analyzed on a flow cytometer. All flow cytometry analyses were performed on FACScalibur (Becton Dickinson) using Cell Quest analysis software. On the x-axis is plotted the fluorescence intensity and on the y-axis is plotted the number of cells with that fluorescence intensity. […] An increase in the sub-diploid DNA content of cells (marker M1 region, FIG. 3) is also seen to increase from 2% to 25% with compound treatment. The sub-diploid amount of DNA (M1) is indicative of apoptotic cells which have undergone DNA degradation or fragmentation.
# [2] = system: T47D; assay: Caspase cascade activation assay (N-(Ac-DEVD)-N'-ethoxycarbonyl-R110 fluorogenic substrate) in T47D cells; format: cell-based, Human; settings: 24 h incubation; for EC50: Homo sapiens, read-out: EC50 (nM) caspase potency; for EC50 / EC50 (nM) caspase potency: sigmoidal dose-response; for Caspase activity Ratio: ratio of net RFU of test compound to control, 0.16 to 10 μM final
# Experimental: (§1) Human breast cancer cell lines T47D and ZR75-1 were grown according to media component mixtures designated by American Type Culture Collection +10% FCS (Invitrogen Corporation, Life Technologies Division), in a 5% CO2 −95% humidity incubator at 37° C. T47D and ZR75-1 cells were maintained at a cell density between 30 and 80% confluency at a cell density of 0.1 to 0.6×10^6 cells/ml. Cells were harvested at 600xg and resuspended at 0.65×10^6 cells/ml into appropriate media +10% FCS. An aliquot of 45 μl of cells was added to a well of a 96-well microtiter plate containing 5 μl of a 10% DMSO in RPMI-1640 media solution containing 1.6 to 100 μM of N-(4-methoxy-2-nitrophenyl)-3-pyridinecarboxamide or other test compound (0.16 to 10 μM final). An aliquot of 45 μl of cells was added to a well of a 96-well microtiter plate containing 5 μl of a 10% DMSO in RPMI-1640 media solution without test compound as the control sample. The samples were mixed by agitation and then incubated at 37 C. for 24 h in a 5% CO2 −95% humidity incubator. After incubation, the samples were removed from the incubator and 50 μl of a solution containing 20 μM of N-(Ac-DEVD)-N′-ethoxycarbonyl-R110 (SEQ ID NO: 1) fluorogenic substrate (Cytovia, Inc.; WO99/18856), 20% sucrose (Sigma), 20 mM DTT (Sigma), 200 mM NaCl (Sigma), 40 mM Na PIPES buffer pH 7.2 (Sigma), and 500 μg/ml lysolecithin (Calbiochem) was added. The samples were mixed by agitation and incubated at room temperature. Using a fluorescent plate reader (Model 1420 Wallac Instruments), an initial reading (T=0) was made approximately 1-2 min after addition of the substrate solution, employing excitation at 485 nm and emission at 530 nm, to determine the background fluorescence of the control sample. After the 3 h incubation, the samples were read for fluorescence as above (T=3 h).
# (§2) The Relative Fluorescence Unit values (RFU) were used to calculate the sample readings as follows:
# (§3) RFU(T=3h)−Control RFU(T=0)=Net RFU(T=3h).
# (§4) The activity of caspase cascade activation was determined by the ratio of the net RFU value for N-(4-methoxy-2-nitrophenyl)-3-pyridinecarboxamide or other test compound to that of control samples. The EC50 (nM) was determined by a sigmoidal dose-response calculation (Prism 2.0, GraphPad Software Inc.).
# [3] = system: Jurkat cells; assay: Mitotic arrest in Jurkat cells (mitotic figures counted); format: cell-based; settings: 0.02 μM to 5 μM, 6 h
# Experimental: Jurkat cells were incubated with a range of concentrations of N-(4-methoxy-2-nitrophenyl)-3-pyridinecarboxamide (0.02 μM to 5 μM) for 6 h under normal growth conditions; control cultures were treated with DMSO vehicle. The cells were then treated for 20 min. with 800 nM Syto 16 (Molecular Probes, Eugene, OR). Cytospin preparations were then prepared and the samples were viewed by fluorescent microscopy using a fluorescein filter set. For each concentration of test compound, the number of mitotic figures were counted and expressed as a percentage of the total number of cells. Three fields from each condition were evaluated and the mean and SEM were calculated and plotted as a function of drug concentration (FIG. 2).
# [4] = system: Jurkat cells; assay: Nuclear fragmentation in Jurkat cells (Syto16 staining); format: cell-based; settings: 5 μM, 24 h, Syto16 stain
# Experimental: The ability of N-(4-methoxy-2-nitrophenyl)-3-pyridinecarboxamide to induce nuclear fragmentation was tested by treatment of Jurkat cells with the test compound followed by staining of the nucleus with Sytol6, a fluorescent DNA dye (Molecular Probes, Eugene, Oreg.). The nuclei of Jurkat cells treated with vehicle control (DMSO) are seen to be round with dispersed chromatin that is moderately stained with Sytol6 (FIG. 1A).
# [5] = system: ZR75-1; assay: Caspase cascade activation assay (N-(Ac-DEVD)-N'-ethoxycarbonyl-R110 fluorogenic substrate) in ZR75-1 cells; format: cell-based, Human; settings: for EC50: Homo sapiens, ZR-75-1, 24 h incubation, read-out: EC50 (nM) caspase potency; for EC50 / EC50 (nM) caspase potency: sigmoidal dose-response; for Caspase activity Ratio: ratio of net RFU of test compound to control, 0.16 to 10 μM final; for Caspase activity Ratio / EC50 (nM) caspase potency: 24 h incubation
# Experimental: as §1, §2, §3, §4
# [6] = system: HeLa cells; assay: Inhibition of proliferation / colony formation of HeLa cells; format: cell-based; settings: Homo sapiens, 48 hr treatment, colonies counted after 5-7 days
# Experimental: HeLa cells were grown according to media component mixtures designated by American Type Culture Collection +10% FCS (Invitrogen Corporation, Life Technologies Division), in a 5% CO2 −95% humidity incubator at 37° C. In a well of a 96 well plate, 30,000 cells were seeded and treated with compound at the indicated concentrations for 48 hr in a 5% CO2−95% humidity incubator at 37° C. Control wells were treated with the same amount of solvent (DMSO) as the compound samples. After the indicated treatment time, the supernatant was removed to a sterile culture tube and the wells washed with phosphate buffered saline, and the adherent cells trypsinized for 5 min. The trypsinzed cells were added to the culture supernatant, cells were collected (1,200 rpm, 10 min), washed with phosphate buffered saline, and resuspended in fresh media. The cells were counted for trypan blue negative cells, and the cells were diluted with fresh media to 1,000 cells/ml. To a well of a 24-well plate, 0.1 ml of the cell suspension was added along with 1 ml of fresh media (cell suspensions were passed through a 22G needle several times just before plating to form single cell suspensions). […] Colonies are counted when the sizes reached greater than 50 cells per colony. […] Colonies are rinsed with water and the colonies counted and the fraction surviving expressed as the percentage of the number of control colonies.
Compound,EC50 [2] [nM],EC50 [5] [nM],EC50 (nM) caspase potency [2],EC50 (nM) caspase potency [5],Caspase activity Ratio [2],Caspase activity Ratio [5],also measured
"COc1ccc(NC(=O)c2cccnc2)c([N+](=O)[O-])c1 [Example 29, N-(4-Methoxy-2-nitrophenyl)-3-pyridinecarboxamide]",1800,1000,–,–,5.8,6.4,"G1 (M2) cells ([1]; 10 μM): a reduction in the G1(M2); G2/M DNA content (M4) cells ([1]; 10 μM): increase in G2/M DNA content; also recorded: an increase in the G2/M (M4); sub-diploid DNA content of cells (M1), in words ([1]; 10 μM): increase; sub-diploid DNA content of cells (M1) ([1]; 10 μM, control 2%): 25%; Mitotic arrest [3]: effective inducer of mitotic arrest; also recorded: increasing percent of mitotic arrest with increasing drug concentration; Nuclear fragmentation (nuclear morphology) [4]: shrunken and fragmented nuclei"
"CCOc1ccc(NC(=O)c2ccc(Cl)nc2)c([N+](=O)[O-])c1 [Example 8, 6-Chloro-N-(4-ethoxy-2-nitrophenyl)-3-pyridinecarboxamide]",153,77,–,–,5.0,6.3,pIC50 [6]: ~7.00; G1 (M2) cells ([1]; 1 μM): a reduction in the G1(M2); G2/M phase (M4) cells ([1]; 1 μM): accumulation of T47D cells in the G2/M phase; also recorded: an increase in the G2/M (M4); sub-G1 / sub-diploid DNA content of cells (M1) ([1]; 1 μM): increase substantially over control cells
"O=C(Nc1ccc(OCc2ccccc2)cc1[N+](=O)[O-])c1ccc(Cl)nc1 [Example 25, 6-Chloro-N-(4-benzyloxy-2-nitrophenyl)-3-pyridinecarboxamide]",345,133,–,–,5.8,6.6,–
"Cc1ccc(NC(=O)c2ccc(Cl)nc2)c([N+](=O)[O-])c1 [Example 9, 6-Chloro-N-(4-methyl-2-nitrophenyl)-3-pyridinecarboxamide]",920,488,–,–,5.4,5.0,–
"COc1ccc(NC(=O)c2ccc(Cl)nc2Cl)c([N+](=O)[O-])c1 [Example 15, 2,6-Dichloro-N-(4-methoxy-2-nitrophenyl)-3-pyridinecarboxamide]",–,–,Inactive,Inactive,Inactive,Inactive,–

# The next lines start with results.
EC50 [2] [nM],EC50 [5] [nM],EC50 (nM) caspase potency [2],EC50 (nM) caspase potency [5],Compound,Caspase activity Ratio [2],Caspase activity Ratio [5],also measured
587,329,–,–,"O=C(Nc1ccc(Cl)cc1[N+](=O)[O-])c1ccc(Cl)nc1 [Example 2, 6-Chloro-N-(4-chloro-2-nitrophenyl)-3-pyridinecarboxamide]",7.8,5.8,–
–,–,Inactive,Inactive,"COc1ccc(NC(=O)c2cnc(Cl)c(Cl)c2)c([N+](=O)[O-])c1 [Example 16, 5,6-Dichloro-N-(4-methoxy-2-nitrophenyl)-3-pyridinecarboxamide]",Inactive,Inactive,–
–,–,Inactive,Inactive,"O=C(Nc1ccccc1[N+](=O)[O-])c1ccc(Cl)nc1 [Example 10, 6-Chloro-N-(2-nitrophenyl)-3-pyridinecarboxamide]",Inactive,Inactive,–
593,230,–,–,"COc1ccc(NC(=O)c2ccc(Cl)nc2)c([N+](=O)[O-])c1 [Example 7, 6-Chloro-N-(4-methoxy-2-nitrophenyl)-3-pyridinecarboxamide]",8.1,2.7,–
–,4620,Inactive,–,"O=C(Nc1ccc(F)cc1[N+](=O)[O-])c1ccc(Cl)nc1 [Example 3, 6-Chloro-N-(4-fluoro-2-nitrophenyl)-3-pyridinecarboxamide]",Inactive,2.1,–
